Source: patent US5877165A, “Boronated porhyrins and methods for their use” (priority 1997, dated 1999)
“Also recorded” adds a separate entry of the source.

Key:
[1] = test system: KHJJ mammary carcinomas; test: Boron biodistribution, mice with KHJJ mammary carcinomas (Examples 4-7, Table 1); format: in vivo, BALB/c mice; conditions: mouse, in vivo; for Boron Concentration: Blood / Boron Concentration: Brain / Boron Concentration: Tumor: ip, 160 mg/kg
Procedure: (§1) Female BALB/c mice (Taconic Farms, Germantown, N.Y.) (20-25 g) were implanted with either KHJJ or EMT-6 tumors. For KHJJ tumors, 1-3 mm^3 tumor fragments were implanted subcutaneously (s.c.) in the dorsal thorax of each mouse using an 18-gauge trocar. For EMT-6 tumors, 2.5×10^5 cells were implanted similarly using a 27-gauge needle. EMT-6 tumor cells were grown alternately in vivo and in vitro. Single-cell suspensions were prepared from mouse-grown tumors by trypsinization. These were grown in cell culture for several passages and then were frozen in 10% DMSO and stored in liquid nitrogen. Prior to implantation in mice, the cells were thawed and grown in tissue culture in Alpha-MEM with 10% FBS for several passages.
(§2) Under deep halothane anesthesia leading to euthanasia, right ventricular blood was collected in Microtainer (Becton-Dickinson, Rutherford, N.J.) tubes containing EDTA for hematological analyses and boron assays of whole blood and in Microtainer™ tubes containing lithium heparin for chemical analyses and enzyme assays of blood plasma. Tumor, brain, fat, muscle, and liver tissues were sampled at necropsy for boron analyses.
Direct current plasma-atomic emission spectroscopy [DCP-AES] (ARL/Fisons Model SS-7) was used (detection limit: 0.1 μg/ml). Samples (50-130 mg) were digested at 60° C. with sulfuric acid:nitric acid (1:1). Triton X-100 and water were added to give final concentrations of ≈50 mg tissue/ml, 15% total acid v/v and 5% Triton X-100 v/v. Fat and liver tissues were assayed for ^10 B by prompt-gamma spectroscopy (Fairchild, et al., 1986). The prompt-gamma measurements were multiplied by 5.0 to give the total boron concentrations due to the use of boron of natural isotope abundance in the syntheses of all boronated porphyrins reported.
Seven mice having KHJJ mammary carcinomas were given one intraperitoneal (i.p.) injection of 900 μg/g body weight of the boron compound presently used for BNCT of malignant brain tumors, p-boronophenylalanine (BPA) complexed with fructose. BPA was prepared in accordance with procedure described in Coderre, et al., 1996 incorporated herein by reference in its entirety as if set forth in full.
Mice were euthanized during the collection of blood while under Halothane anesthesia. At necropsy, the apparent states of structural integrity, consistency, color or abnormality, if any, of tissues were observed and tumor, brain and liver tissues were collected from each mouse for boron analysis.
Eight mice having KHJJ mammary carcinomas were injected with the NiTCP solution in the amount of 160 μg NiTCP/g body weight (36 μgB/g body weight) in six i.p. injections over 20 hours.
(§3) Six hours after the mice were last injected with NiTCP, mice were euthanized during the collection of blood while under Halothane anesthesia and right ventricular blood was collected from each mouse for hematological and chemical analysis without pooling the samples. At necropsy, the apparent states of structural integrity, consistency, color, or abnormality, if any, of tissues were observed and tumor, brain and liver tissues were collected from each mouse for boron analysis without pooling the samples.
Seven mice having KHJJ mammary carcinomas were injected with the NiTCP solution in the amount of 160 μg NiTCP/g body weight (36 μgB/g body weight) in six i.p. injections over 20 hours.
as §3, with “Sixteen hours” for “Six hours”, “were” for “were last”, “boron analysis. […]” for “boron analysis without pooling the samples.”

[2] = Hematological, enzymatic and chemical blood analyses and weight change, mice with KHJJ mammary carcinomas (Examples 4-7, Table 1); format: in vivo, BALB/c mice; conditions: NiTCP 160 or BPA 900 μg/gbw; 6-78 hr
Procedure: as §1, with “passages. […]” for “passages.”
Levels of glucose [GLU], blood urea nitrogen [BUN], blood creatinine [BCR], alanine transaminase [ALT], aspartate transaminase [AST], alkaline phosphatase [ALP], total protein [TPR], albumin [ALB], and creatine phosphokinase [CPK] were determined in blood plasma using a Cobas Fara II microanalysis system. Blood platelets [PLT] and white blood cells [WBC] were counted using a Serono-Baker System 9000 automated hematology microanalyzer. […]

[3] = test system: EMT-6 mammary tumors; test: Experiment III: boron concentrations in tissues, mice bearing EMT-6 tumors (Table 8); design: species or system BALB/c mice; conditions: mouse, in vivo, ip, 183 mg/kg
Procedure: Lipophilic porphyrins 1, 2, 4, 5, and 6 were injected as emulsions in either 3% or 9% CRM and either 6% or 18% PRG with saline as previously described in Example 2 above. Water soluble porphyrins 3 and 7 were dissolved in saline. BPA was solubilized as a fructose complex.
Female BALB/c mice (from Taconic Farms, Germantown, N.Y.) (20-25 g) were implanted with either KHJJ or EMT-6 tumors according to the procedure described in Example 3A above.
as §2
In Experiment III, NiTCP and NiTCP-H were compared in mice bearing EMT-6 mammary tumors. Each porphyrin was administered via 6 i.p. injections over a period of 32 hours and the mice were euthanized 39 hours and 90 hours after the last injection.
Hematological, chemical and enzymatic tests were carried out as described in Example 3 above. Nonparametric statistical analyses were carried out using the Wilcoxon Two-Sample Test in accordance with procedures described in Slatkin, D.N., 1995. Boron analyses were conducted in accordance with the procedure described in Example 3 above. Fat and liver tissues were assayed for ^10 B by prompt-gamma spectroscopy as described in Fairchild, et al., 1986. These measurements were multiplied by 5.0 to give total boron concentrations due to the use of boron of natural isotope abundance in the syntheses of all boronated porphyrins reported.

In the case of “Nickel Tetracarboranylphenylporphyrin [NiTCP]”, the “boron delivered to tumor relative to BPA” value [1] is reported as “twice the amount of boron to tumor than that of BPA”, the “Boron Concentration: Blood” value ([1]; 16 h) is reported as 13.2 (4.2-30.5) μg B/g and the “Boron Concentration: Brain” value ([1]; 16 h) is reported as 3.8 (2.4-5.0) μg B/g. The “Boron Concentration: Tumor” value ([1]; 16 h) was 25.5 (16.2-38.7) μg B/g, the “Boron Concentration: Blood” value ([1]; 78 h) was 0.2 (0.4-5.8) μg B/g and the “Boron Concentration: Brain” value ([1]; 78 h) was 1.7 (0.1-0.2) μg B/g. The “Boron Concentration: Tumor” value ([1]; 78 h) was 17.0 (9.2-28.2) μg B/g, the “toxicity, in words” value [2] was “some minor, evidently transient, weight loss was noted six hours after the last NiTCP injection; also recorded: The BUN levels in mice given NiTCP at all three time points were higher than those in mice given BPA; also recorded: The ALP and ALT were somewhat depressed 78 hours after injections” and the “Boron concentration, Blood” value ([3]; 39 h) was 2.8 (0.8-11.4) μg B/g. The “Boron concentration, Brain” value ([3]; 39 h) was 1.6 (1.0-2.5) μg B/g, the “Boron concentration, Liver” value ([3]; 39 h) was 201 (162-251) μg B/g and the “Boron concentration, Tumor” value ([3]; 39 h) was 40 (26-73) μg B/g. The “Boron concentration, Blood” value ([3]; 90 h) was 0.3 (0.1-0.3) μg B/g, the “Boron concentration, Brain” value ([3]; 90 h) was 4.2 (1.3-6.0) μg B/g and the “Boron concentration, Liver” value ([3]; 90 h) was 226 (176-284) μg B/g.
